“Also recorded” adds a separate entry of the source. Where no end group is shown, it is not given here.
Experiments:
E. coli O157:H7 = conditions: cited from earlier work
Experimental: Salt ions in serum are important factors affecting the antibacterial activity of AMPs in vivo because they can bind to the negatively charged groups of lipopolysaccharide (LPS), a monolayer molecule on the outer membrane of Gram-negative bacteria ([29]). […] But in the presence of physiological concentrations of CaCl2, the MIC of OaBac5mini increased four-fold and attained 100 μg/ml (Table 2). It has been reported that the ...

[1] = system: Gram-positive bacteria and C. albicans; conditions: cited from earlier work
Excerpt: (§1) Antimicrobial peptides (AMPs) are small molecular peptides in living organisms and serve as natural barriers against the invasion of pathogenic microorganisms ([5]). They are often referred to as cationic host defense peptides (HDPs) or cationic antimicrobial peptides (CAMPs) ([6]). Cathelicidins are one of the best characterized AMP families. Each cathelicidin includes an N-terminal signal domain, a cathelin-like domain, and an antimicrobial C-terminal domain ([7]). Among them, the proline-rich antibacterial peptides (PrAMPs) have been attracting the close attention of researchers due to thei ...

Gram-negative bacteria = conditions: cited from earlier work
Excerpt: as §1

trypsin = test: Digestive enzyme sensitivity (inhibition zone assay); conditions: 37°C, 3 h, 50 μg/ml peptide, inhibition zone assay against E. coli ATCC 25922, repeated three times
Experimental: The sensitivities of OaBac5mini to different pH, temperature, digestive enzymes, and repeated freeze-thawing conditions were determined using the inhibition zone assay as previously described ([23]). For pH sensitivity, OaBac5mini was diluted with each solution whose pH was individually adjusted to 2, 3, 4, 5, 6, 7, 8, 9, 10, 11 with HCl or NaOH, and incubated for 2 h, followed by adjusting the pH to 7 to end the reaction. For temperature sensitivity, the diluted peptide was incubated at 30, 40, 50, 60, 70, 80, 90, and 100°C for 30 min. To determine the digestive enzymes sensitivity, OaBac5mini was incubated with 100 μg/ml pepsin (in pH 2 sterile water, sigma, USA), 5–100 μg/ml trypsin (in pH 6.8 KH2PO4 buffer, sigma, USA) and 100 μg/ml protease K (Solarbio, China) at 37°C for 3 h, respectively. To end the reaction after incubation, the pepsin buffer was adjusted to pH 8, the trypsin solution and protease K solution were incubated at 95°C for 10 min. For repeated freeze-thawing sensitivity, OaBac5mini was frozen and then thawed at room temperature 0–12 times. All the final concentrations of OaBac5mini in sensitivity tests were 50 μg/ml. All experiments were repeated three times.

pepsin = molecular target: T1, pepsin (Sus scrofa, UniProt P00791); test: as above; type: in vitro ADME; conditions: 100 μg/ml pepsin in pH 2 sterile water, 37°C, 3 h; 50 μg/ml peptide; inhibition zone assay against E. coli ATCC 25922; repeated three times
T1 construct: purchased sigma, USA
Excerpt: (§2) All experiments were repeated three times.

proteinase K = molecular target: T2, proteinase K (Parengyodontium album, UniProt P06873); test: as above; type: in vitro ADME; conditions: 100 μg/ml protease K, 37°C, 3 h; 50 μg/ml peptide; inhibition zone assay against E. coli ATCC 25922; repeated three times
T2 construct: purchased Solarbio, China
Excerpt: as §2

S. aureus ATCC 25923 = test: microbe, parasite or virus in culture; conditions: ATCC 25923
Experimental: (§3) MICs of OaBac5mini, amoxicillin, kanamycin, florfenicol and tetracycline were determined using the two-fold broth microdilution method according to the Clinical and Laboratory Standards Institute (CLSI) guidance ([21]). MIC values of the tested antibacterial agents were determined on three independent occasions. Escherichia coli ATCC 25922 was used as the quality control in all the susceptibility tests.

E. coli ATCC 25922 [2] = test: microbe, parasite or virus in culture; conditions: ATCC 25922
Experimental: as §3

E. coli ATCC 25922 [3] = test: Time-kill curve; type: cell-based, Escherichia coli; conditions: MH broth, 37°C, 5×10^5 CFU/ml, triplicate
Experimental: To investigate the time-kill effect of OaBac5mini against E. coli ATCC 25922, bacteria (5×10^5 CFU/ml) were cultured in fresh Mueller-Hinton (MH) broth (Yashi Organisms, China) with different concentrations of OaBac5mini (0, 50, 100, and 200 μg/ml) at 37°C with shaking at the speed of 220 rpm. Equal amounts (100 μl) of E. coli ATCC 25922 from each sample were withdrawn at 0, 2, 4, 6, 8, 10, 12, and 24 h, diluted with Luria-Bertani (LB) broth (Solarbio, China) and plated onto LB agar plates. Plates were placed at 37°C for 18 h for the CFU counts.

E. coli ATCC 25922 ΔsbmA = conditions: two-fold broth microdilution, CLSI; three independent occasions; sbmA deletion mutant
Experimental: The method described by Datsenko and Wanner was used for chromosomal gene deletion ([20]). […] The PCR fragment (1,567 bp) was purified, digested with DpnI, repurified and transferred into E. coli ATCC 25922 by electroporation, in which the Red recombinase expression plasmid pKD46 was previously transformed and induced by L-arabinose. Transformants were selected on Luria-Bertani (LB) agar containing 50 μg/ml of kanamycin at 37°C. The inserted sequence was amplified from the kanamycin-resistant strains by using the primers SBMF: 5′-[…]-3′ and SBMR: 5′-[…]-3′ which is located outside of inactivated gene. The length of the PCR product of sbmA using the primers set SBMF and SBMR in E. coli ATCC 25922 is 1,404 bp. When sbmA is successfully inactivated, the PCR product (2,198 bp) was amplified and sequenced for the verification of the gene deletion.
as §3

IPEC-J2 cells = type: cell-based, porcine
Experimental: The cells were maintained in CO2 incubator (Galaxy R, RS Biotech, Scotland) with 5% CO2 at 37°C. Real time cellular analysis (RTCA) was used to evaluate the proliferation and viability of IPEC-J2 cells. […] Real time cellular analysis was monitored using xCELLigence RTCA DP system (xCELLigence, ACEA biosciences, USA) for 100 h at 15 min intervals. The cell index was normalized by RTCA software 2.0 (xCELLigence, ACEA biosciences, USA).

T2 sequence (P06873 106-384): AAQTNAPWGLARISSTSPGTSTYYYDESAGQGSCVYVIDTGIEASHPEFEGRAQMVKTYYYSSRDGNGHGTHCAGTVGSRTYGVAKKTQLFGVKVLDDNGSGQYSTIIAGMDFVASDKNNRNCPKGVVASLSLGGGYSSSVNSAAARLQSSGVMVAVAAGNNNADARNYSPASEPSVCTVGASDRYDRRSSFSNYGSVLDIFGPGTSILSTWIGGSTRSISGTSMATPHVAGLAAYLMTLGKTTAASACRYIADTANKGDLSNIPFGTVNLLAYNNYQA
T1 sequence (P00791 60-385): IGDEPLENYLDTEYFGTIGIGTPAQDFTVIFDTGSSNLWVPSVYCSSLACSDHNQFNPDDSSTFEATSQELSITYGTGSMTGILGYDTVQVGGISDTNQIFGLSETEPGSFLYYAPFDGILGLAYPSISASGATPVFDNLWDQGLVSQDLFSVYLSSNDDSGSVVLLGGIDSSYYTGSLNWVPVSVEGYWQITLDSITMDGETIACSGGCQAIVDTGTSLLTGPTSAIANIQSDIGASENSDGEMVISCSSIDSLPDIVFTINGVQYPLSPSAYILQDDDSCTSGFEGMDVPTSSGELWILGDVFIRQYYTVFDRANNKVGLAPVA

RFRPPIRRPPIRPPFRPPFRPPVR [OaBac5mini]
MIC against E. coli O157:H7 in the presence of 100 mM NaCl (E. coli O157:H7): about 30 μg/ml | MICs against Gram-positive bacteria and C. albicans [1]: 16 to 64 µg/mL | MICs against Gram-negative bacteria (Gram-negative bacteria): 0.125 to 8 µg/mL | Antibacterial activity after treatment with trypsin 20 to 100 μg/ml (trypsin; trypsin 20 to 100 μg/ml in pH 6.8 KH2PO4 buffer): completely lost activity | Antibacterial activity after treatment with trypsin at low concentrations (trypsin; trypsin ≤ 10 μg/ml (< 20 μg/mL) in pH 6.8 KH2PO4 buffer): stable antibacterial activity; also recorded: no significant effect | Antibacterial activity after treatment with pepsin (pepsin): stable antibacterial activity; also recorded: not significantly affected | Antibacterial activity after treatment with proteinase K (proteinase K): stable antibacterial activity; also recorded: no significant effect | MIC against S. aureus ATCC 25923 (S. aureus ATCC 25923): >250 µg/mL | MIC against E. coli ATCC 25922 (E. coli ATCC 25922 [2]): 25 µg/mL | Time-kill effect at 50 μg/ml (2 × MIC) (E. coli ATCC 25922 [3]; 50 μg/ml, 24 h): the number of bacteria remained stable in the first co-incubation for 8h before it increased | Time-kill effect at 100 μg/ml (E. coli ATCC 25922 [3]; 100 μg/ml, 24 h): decrease after co-incubation for 12 h and increase in further co-incubation for 12 h | Time-kill effect at 200 μg/ml (8 × MIC) (E. coli ATCC 25922 [3]; 200 μg/ml, co-incubation for 12 h): could effectively kill; also recorded: effectively killed | MIC against E. coli ATCC 25922 ΔsbmA (E. coli ATCC 25922 ΔsbmA): 100 µg/mL | Cell indexes of IPEC-J2 cells at 400 μg/ml compared to the control group (IPEC-J2 cells): didn't change significantly | Cell indexes of treated IPEC-J2 cells compared with the control group (IPEC-J2 cells): significant increase

— article PMC9995905, “Characteristics of antimicrobial peptide OaBac5mini and its bactericidal mechanism against Escherichia coli” (Frontiers in Veterinary Science, 2023)
